Experiments:
BRM = BRM (Homo sapiens, UniProt P51531); test: Immunofluorescence assay for BRM degradation in SW1573 cells; format: cell-based; design: treated overnight at 4° C. with either BRM primary antibody (Cell signaling Cat #11966) or BRG primary antibody; endogenous in cells; host or cells: SW1573; settings: 20 hours incubation; for DC50: immunofluorescence mean nuclear signal, read-out: BRM IF Degradation IC50; for BRM IF Degradation Sinf (%): normalized to a known degrader control
Procedure, shortened: (§1)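 Imaging-based readout in SW1573: 20 h dosing, formaldehyde fixation, antibody staining for either remodeler, nuclear intensity per cell quantified. Values normalized to control degrader; floating-maximum fit.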

BRG1 = target: T1, BRG1 (Homo sapiens, UniProt P51532); test: Immunofluorescence assay for BRG1 degradation in SW1573 cells; format: cell-based; settings: 20 hours incubation; for DC50: immunofluorescence mean nuclear signal, read-out: BRG1 IF Degradation IC50; for Dmax: SW1573, 20 h, normalized to a known degrader control, read-out: BRG1 IF Degradation Sinf (%)
T1 construct: either BRM primary antibody (Cell signaling Cat #11966) or BRG primary antibody (Abcam, ab 110641); endogenous in cells; host or cells: SW1573
Procedure, shortened: as §1

Sequence of BRM (P51531 whole entry): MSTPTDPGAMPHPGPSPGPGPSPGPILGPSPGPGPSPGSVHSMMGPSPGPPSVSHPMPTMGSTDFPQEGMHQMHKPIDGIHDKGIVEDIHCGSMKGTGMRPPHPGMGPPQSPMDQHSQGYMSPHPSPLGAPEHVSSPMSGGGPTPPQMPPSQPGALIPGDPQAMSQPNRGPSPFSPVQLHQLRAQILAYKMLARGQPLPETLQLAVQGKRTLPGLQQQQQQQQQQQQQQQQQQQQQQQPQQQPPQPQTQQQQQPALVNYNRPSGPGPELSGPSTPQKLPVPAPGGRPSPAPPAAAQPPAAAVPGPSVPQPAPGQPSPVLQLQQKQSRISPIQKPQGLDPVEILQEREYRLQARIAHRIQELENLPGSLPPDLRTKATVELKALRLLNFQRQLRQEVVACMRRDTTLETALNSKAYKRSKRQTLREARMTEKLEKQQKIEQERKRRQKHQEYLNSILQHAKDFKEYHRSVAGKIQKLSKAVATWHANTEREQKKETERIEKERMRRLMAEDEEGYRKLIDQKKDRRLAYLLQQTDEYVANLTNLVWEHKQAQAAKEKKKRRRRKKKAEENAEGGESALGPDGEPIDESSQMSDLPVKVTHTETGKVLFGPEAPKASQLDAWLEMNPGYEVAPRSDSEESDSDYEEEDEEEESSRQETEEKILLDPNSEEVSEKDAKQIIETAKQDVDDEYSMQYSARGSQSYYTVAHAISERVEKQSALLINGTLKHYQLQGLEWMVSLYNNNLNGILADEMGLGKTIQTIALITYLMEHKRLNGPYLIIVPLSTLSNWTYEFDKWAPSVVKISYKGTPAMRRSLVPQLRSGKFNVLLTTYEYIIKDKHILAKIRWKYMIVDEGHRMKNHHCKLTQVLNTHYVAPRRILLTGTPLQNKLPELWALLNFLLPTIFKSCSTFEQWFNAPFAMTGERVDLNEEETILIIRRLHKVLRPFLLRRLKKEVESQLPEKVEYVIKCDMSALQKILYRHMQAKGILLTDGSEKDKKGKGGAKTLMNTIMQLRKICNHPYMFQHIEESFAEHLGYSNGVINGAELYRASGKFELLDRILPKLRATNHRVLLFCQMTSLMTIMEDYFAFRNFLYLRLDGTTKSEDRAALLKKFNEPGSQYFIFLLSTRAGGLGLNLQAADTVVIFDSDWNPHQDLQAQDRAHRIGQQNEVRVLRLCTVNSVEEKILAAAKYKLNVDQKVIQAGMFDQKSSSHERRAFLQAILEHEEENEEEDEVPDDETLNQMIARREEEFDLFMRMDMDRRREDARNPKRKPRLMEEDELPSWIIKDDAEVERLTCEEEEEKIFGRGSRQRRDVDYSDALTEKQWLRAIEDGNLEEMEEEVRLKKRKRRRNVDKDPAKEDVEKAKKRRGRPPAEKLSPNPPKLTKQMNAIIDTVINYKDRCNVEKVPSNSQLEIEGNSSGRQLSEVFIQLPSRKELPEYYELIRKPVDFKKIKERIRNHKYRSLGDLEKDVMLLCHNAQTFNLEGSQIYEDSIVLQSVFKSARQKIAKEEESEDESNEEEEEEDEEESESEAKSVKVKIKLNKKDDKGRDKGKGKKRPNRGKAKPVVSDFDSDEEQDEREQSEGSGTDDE
T1 sequence (P51532 whole entry): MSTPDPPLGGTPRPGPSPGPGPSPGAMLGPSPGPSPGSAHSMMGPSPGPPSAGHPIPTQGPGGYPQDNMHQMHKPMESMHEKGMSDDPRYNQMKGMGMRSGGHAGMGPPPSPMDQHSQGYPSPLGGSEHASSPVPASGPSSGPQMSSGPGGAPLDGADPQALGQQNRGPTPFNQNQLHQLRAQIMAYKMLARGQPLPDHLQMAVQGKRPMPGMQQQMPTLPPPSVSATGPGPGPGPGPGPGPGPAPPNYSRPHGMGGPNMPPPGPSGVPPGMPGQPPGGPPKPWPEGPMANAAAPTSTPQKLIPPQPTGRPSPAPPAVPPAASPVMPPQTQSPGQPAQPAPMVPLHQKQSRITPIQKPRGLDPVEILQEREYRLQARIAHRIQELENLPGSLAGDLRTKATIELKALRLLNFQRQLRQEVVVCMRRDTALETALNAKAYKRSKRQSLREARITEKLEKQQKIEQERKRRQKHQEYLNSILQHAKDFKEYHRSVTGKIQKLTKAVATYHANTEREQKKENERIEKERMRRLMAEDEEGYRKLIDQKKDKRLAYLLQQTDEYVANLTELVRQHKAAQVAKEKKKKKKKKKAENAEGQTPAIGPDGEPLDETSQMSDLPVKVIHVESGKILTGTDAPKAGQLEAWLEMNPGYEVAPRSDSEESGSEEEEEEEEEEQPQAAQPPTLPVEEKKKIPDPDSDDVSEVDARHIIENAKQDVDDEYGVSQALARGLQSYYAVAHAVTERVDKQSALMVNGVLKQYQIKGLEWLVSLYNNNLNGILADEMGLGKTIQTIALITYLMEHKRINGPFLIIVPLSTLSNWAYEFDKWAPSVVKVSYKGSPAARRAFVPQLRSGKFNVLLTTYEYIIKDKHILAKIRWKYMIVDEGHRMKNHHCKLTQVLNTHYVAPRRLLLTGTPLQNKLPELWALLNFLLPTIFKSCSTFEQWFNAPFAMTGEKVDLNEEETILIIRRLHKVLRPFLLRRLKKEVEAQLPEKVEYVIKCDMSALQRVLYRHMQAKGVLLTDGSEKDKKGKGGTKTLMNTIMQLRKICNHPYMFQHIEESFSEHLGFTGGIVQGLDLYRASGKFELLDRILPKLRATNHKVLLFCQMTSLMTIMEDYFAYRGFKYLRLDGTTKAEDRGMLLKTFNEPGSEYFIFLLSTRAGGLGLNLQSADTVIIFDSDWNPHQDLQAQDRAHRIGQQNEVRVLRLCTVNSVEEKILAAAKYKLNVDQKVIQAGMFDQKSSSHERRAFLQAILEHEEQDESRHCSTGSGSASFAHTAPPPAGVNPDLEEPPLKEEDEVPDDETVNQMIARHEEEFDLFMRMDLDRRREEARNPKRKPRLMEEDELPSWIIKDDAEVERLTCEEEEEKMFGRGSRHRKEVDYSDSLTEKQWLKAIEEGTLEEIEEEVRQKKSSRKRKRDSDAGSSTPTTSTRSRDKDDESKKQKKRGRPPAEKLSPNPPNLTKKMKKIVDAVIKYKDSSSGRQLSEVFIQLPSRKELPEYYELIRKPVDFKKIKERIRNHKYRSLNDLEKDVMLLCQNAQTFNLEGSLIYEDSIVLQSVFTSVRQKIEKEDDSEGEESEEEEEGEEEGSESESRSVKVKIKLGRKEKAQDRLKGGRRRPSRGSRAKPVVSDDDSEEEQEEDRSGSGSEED

With `Nc1nnc(-c2ccccc2O)cc1N1CC2CCC(C1)N2c1ccnc(C#CCN2CCC3OCCC3C2)c1` (stereo not drawn) [Compound 145, 2-[5-[8-[2-[3-(3,3a,4,6,7,7a-hexahydro-2H-furo[3,2-c]pyridin-5-yl)prop-1-ynyl]-4-pyridyl]-3,8-diazabicyclo[3.2.1]octan-3-yl]-6-amino-pyridazin-3-yl]phenol] the DC50 (BRM) was less than 0.01 µM, the “BRM IF Degradation Sinf (%)” value (BRM) was “E (E indicates −30%-−70%)” and the DC50 (BRG1) was less than 0.01 µM. It also gave a Dmax (BRG1) of 0 to 30%.

`N#CCC1CCN(CC#Cc2cc(N3C4CCC3CN(c3cc(-c5ccccc5O)nnc3N)C4)ccn2)CCC1(F)F` (stereo not drawn) [Compound 206, 2-[1-[3-[4-[3-[3-amino-6-(2-hydroxyphenyl)pyridazin-4-yl]-3,8-diazabicyclo[3.2.1]octan-8-yl]-2-pyridyl]prop-2-ynyl]-5,5-difluoro-azepan-4-yl]acetonitrile] was tested, and the DC50 (BRM) was 0.01 to 0.1 µM, the “BRM IF Degradation Sinf (%)” value (BRM) was “E (E indicates −30%-−70%)” and the DC50 (BRG1) was greater than 0.1 µM.

With `Nc1nnc(-c2ccccc2O)cc1N1CC2CCC(C1)N2c1ccnc(C#CCN2CC3CC2CO3)c1` (stereo not drawn) [Compound 132, 2-[6-amino-5-[8-[2-[3-(2-oxa-5-azabicyclo[2.2.1]heptan-5-yl)prop-1-ynyl]-4-pyridyl]-3,8-diazabicyclo[3.2.1]octan-3-yl]pyridazin-3-yl]phenol] the DC50 (BRM) was less than 0.01 µM, the “BRM IF Degradation Sinf (%)” value (BRM) was “E (E indicates −30%-−70%)” and the DC50 (BRG1) was less than 0.01 µM. For the same compound, the Dmax (BRG1) was 30 to 70%.

`CC1CCCCN(CC#Cc2cc(N3C4CCC3CN(c3cc(-c5ccccc5O)nnc3N)C4)ccn2)C1` (stereo not drawn) [Compound 192, 2-[6-amino-5-[8-[2-[3-(3-methylazepan-1-yl)prop-1-ynyl]-4-pyridyl]-3,8-diazabicyclo[3.2.1]octan-3-yl]pyridazin-3-yl]phenol] was tested, and the DC50 (BRM) was less than 0.01 µM, the “BRM IF Degradation Sinf (%)” value (BRM) was “F (F indicates −71%-−120%)” and the DC50 (BRG1) was less than 0.01 µM. The Dmax (BRG1) was 71 to 120%.

`Nc1nnc(-c2ccccc2O)cc1N1CC2CCC(C1)N2c1ccnc(C#CCN2CC(Oc3ccccc3)C2)c1` [Compound 226, 2-[6-amino-5-[8-[2-[3-(3-phenoxyazetidin-1-yl)prop-1-ynyl]-4-pyridyl]-3,8-diazabicyclo[3.2.1]octan-3-yl]pyridazin-3-yl]phenol] was tested, and the DC50 (BRM) was 0.01 to 0.1 µM, the “BRM IF Degradation Sinf (%)” value (BRM) was “E (E indicates −30%-−70%)” and the DC50 (BRG1) was less than 0.01 µM. It also gave a Dmax (BRG1) of 30 to 70%.

With `Nc1nnc(-c2ccccc2O)cc1N1CC2CCC(C1)N2c1ccnc(C#CCN2CCC23CCC3)c1` [Compound 235, 2-[6-amino-5-[8-[2-[3-(1-azaspiro[3.3]heptan-1-yl)prop-1-ynyl]-4-pyridyl]-3,8-diazabicyclo[3.2.1]octan-3-yl]pyridazin-3-yl]phenol] the DC50 (BRM) was 0.01 to 0.1 µM, the “BRM IF Degradation Sinf (%)” value (BRM) was “F (F indicates −71%-−120%)” and the DC50 (BRG1) was less than 0.01 µM. The Dmax (BRG1) was 30 to 70%.

For `N#CCC1CN(CC#Cc2cc(N3C4CCC3CN(c3cc(-c5ccccc5O)nnc3N)C4)ccn2)C1` [Compound 152, 2-[1-[3-[4-[3-[3-amino-6-(2-hydroxyphenyl)pyridazin-4-yl]-3,8-diazabicyclo[3.2.1]octan-8-yl]-2-pyridyl]prop-2-ynyl]azetidin-3-yl]acetonitrile], the DC50 (BRM) was less than 0.01 µM, the “BRM IF Degradation Sinf (%)” value (BRM) was “E (E indicates −30%-−70%)” and the DC50 (BRG1) was less than 0.01 µM. It also gave a Dmax (BRG1) of 30 to 70%.

With `Oc1ccccc1-c1cc2c(nn1)NC[C@H]1CN(c3ccnc(C#CCN4CCCCCC4)c3)CCN21` (single isomer, unassigned) [Compound 252] the DC50 (BRM) was less than 0.01 µM, the “BRM IF Degradation Sinf (%)” value (BRM) was “F (F indicates −71%-−120%)” and the DC50 (BRG1) was less than 0.01 µM. It also gave a Dmax (BRG1) of 71 to 120%.

`Nc1nnc(-c2ccccc2O)cc1N1CC2CCC(C1)N2c1ccnc(C#CCN2CC3CC3(O)C2)c1` (stereo not drawn) [Compound 105, 3-(3-(4-(3-(3-amino-6-(2-hydroxyphenyl)pyridazin-4-yl)-3,8-diazabicyclo[3.2.1]octan-8-yl)pyridin-2-yl)prop-2-yn-1-yl)-3-azabicyclo[3.1.0]hexan-1-ol] was tested, and the DC50 (BRM) was 0.01 to 0.1 µM, the “BRM IF Degradation Sinf (%)” value (BRM) was “E (E indicates −30%-−70%)” and the DC50 (BRG1) was 0.01 to 0.1 µM. The Dmax (BRG1) was 0 to 30%.

In the case of `N#CC1CCN(CC#Cc2cc(N3C4CCC3CN(c3cc(-c5ccccc5O)nnc3N)C4)ccn2)CC1` [Compound 139, 1-[3-[4-[3-[3-amino-6-(2-hydroxyphenyl)pyridazin-4-yl]-3,8-diazabicyclo[3.2.1]octan-8-yl]-2-pyridyl]prop-2-ynyl]piperidine-4-carbonitrile], the DC50 (BRM) is reported as less than 0.01 µM, the “BRM IF Degradation Sinf (%)” value (BRM) is reported as “E (E indicates −30%-−70%)” and the DC50 (BRG1) is reported as 0.01 to 0.1 µM. The Dmax (BRG1) was 0 to 30%.

In the case of `Nc1nnc(-c2ccccc2O)cc1N1CC2CCC(C1)N2c1ccnc(C#CCN2CCC[C@@H]3CC[C@@H]32)c1` [Compound 102, 2-[6-amino-5-[8-[2-[3-[(1S,6R)-2-azabicyclo[4.2.0]octan-2-yl]prop-1-ynyl]-4-pyridyl]-3,8-diazabicyclo[3.2.1]octan-3-yl]pyridazin-3-yl]phenol], the DC50 (BRM) is reported as less than 0.01 µM, the “BRM IF Degradation Sinf (%)” value (BRM) is reported as “E (E indicates −30%-−70%)” and the DC50 (BRG1) is reported as less than 0.01 µM. For the same compound, the Dmax (BRG1) was 30 to 70%.

In the case of `Nc1nnc(-c2ccccc2O)cc1N1CC2CCC(C1)N2c1ccnc(C#CCN2CCC(CO)CC2)c1` [Compound 45, 2-(6-amino-5-(8-(2-(3-(4-(hydroxymethyl)piperidin-1-yl)prop-1-yn-1-yl)pyridin-4-yl)-3,8-diazabicyclo[3.2.1]octan-3-yl)pyridazin-3-yl)phenol], the DC50 (BRM) is reported as 0.01 to 0.1 µM, the “BRM IF Degradation Sinf (%)” value (BRM) is reported as “E (E indicates −30%-−70%)” and the DC50 (BRG1) is reported as 0.01 to 0.1 µM. The Dmax (BRG1) was 30 to 70%.

For `CC1(O)CCCCN(CC#Cc2cc(N3C4CCC3CN(c3cc(-c5ccccc5O)nnc3N)C4)ccn2)C1` (stereo not drawn) [Compound 240, 1-[3-[4-[3-[3-amino-6-(2-hydroxyphenyl)pyridazin-4-yl]-3,8-diazabicyclo[3.2.1]octan-8-yl]-2-pyridyl]prop-2-ynyl]-3-methyl-azepan-3-ol], the DC50 (BRM) was 0.01 to 0.1 µM, the “BRM IF Degradation Sinf (%)” value (BRM) was “F (F indicates −71%-−120%)” and the DC50 (BRG1) was 0.01 to 0.1 µM. The Dmax (BRG1) was 30 to 70%.

In the case of `Nc1nnc(-c2ccccc2O)cc1N1CC2CCC(C1)N2c1ccnc(C#CCN2CCn3ccnc3C2)c1` [Compound 53, 2-[6-amino-5-[8-[2-[3-(6,8-dihydro-5H-imidazo[1,2-a]pyrazin-7-yl)prop-1-ynyl]-4-pyridyl]-3,8-diazabicyclo[3.2.1]octan-3-yl]pyridazin-3-yl]phenol], the DC50 (BRM) is reported as 0.01 to 0.1 µM, the “BRM IF Degradation Sinf (%)” value (BRM) is reported as “E (E indicates −30%-−70%)” and the DC50 (BRG1) is reported as 0.01 to 0.1 µM. The Dmax (BRG1) was 0 to 30%.

With `Nc1nnc(-c2ccccc2O)cc1N1CC2CCC(C1)N2c1ccnc(C#CCN2CC3CCCC3C2)c1` (stereo not drawn) [Compound 63, 2-[5-[8-[2-[3-(3,3a,4,5,6,6a-hexahydro-1H-cyclopenta[c]pyrrol-2-yl)prop-1-ynyl]-4-pyridyl]-3,8-diazabicyclo[3.2.1]octan-3-yl]-6-amino-pyridazin-3-yl]phenol] the DC50 (BRM) was less than 0.01 µM, the “BRM IF Degradation Sinf (%)” value (BRM) was “F (F indicates −71%-−120%)” and the DC50 (BRG1) was less than 0.01 µM. For the same compound, the Dmax (BRG1) was 30 to 70%.

With `CC1(C)CCCN(CC#Cc2cc(N3C4CCC3CN(c3cc(-c5ccccc5O)nnc3N)C4)ccn2)CC1` [Compound 205, 2-[6-amino-5-[8-[2-[3-(4,4-dimethylazepan-1-yl)prop-1-ynyl]-4-pyridyl]-3,8-diazabicyclo[3.2.1]octan-3-yl]pyridazin-3-yl]phenol] the DC50 (BRM) was less than 0.01 µM, the “BRM IF Degradation Sinf (%)” value (BRM) was “F (F indicates −71%-−120%)” and the DC50 (BRG1) was less than 0.01 µM. The Dmax (BRG1) was 30 to 70%.

Reference: US11993599B2, “Therapeutic compounds” (Genentech, Inc., priority 2021, dated 2024)
